The record followed here is patent publication US8436205B2, “Tetrahydronaphthalene compounds” (Actelion Pharmaceuticals Ltd., priority 2008, dated 2013).

For assay [1], the system named is human Cav3.1 Cav3.2 or Cav3.3 channel. Briefly: In vitro assay T channel (FLIPR, Ca2+-induced calcium fluorescence). In kind it is cell-based. The settings on record: HEK293 cells; 10 mM Ca2+; geometric mean from n values; read-out: T channel antagonistic activity IC50. The protocol:
The T channel antagonistic activity (IC50 values) of the compounds of formula (I) is determined in accordance with the following experimental method and data are shown in Table 1.
Human embryonic kidney (HEK293) cells expressing the human Cav3.1 Cav3.2 or Cav3.3 channel, respectively, are grown in culture medium (DMEM containing 10% heat-inactivated fetal calf serum (FCS), 100 U/ml penicillin, 100 μg/ml streptomycin and 1 mg/ml G418). The cells are seeded at 20.000 cells/well into 384-well black clear bottom sterile plates (poly-L-lysine-coated, Becton Dickinson). The seeded plates are incubated overnight at 37° C. in 5% CO2. The Ca^2+ solution is prepared as 100 mM stock solution in 100 mM tetraethylammoniumchloride (TEA-chloride), 50 mM HEPES, 2.5 mM CaCl2, 5 mM KCl, 1 mM MgCl2, adjusted to pH 7.2 with TEA-hydroxide, for use in the assay at a final concentration of 10 mM. Antagonists are prepared as 10 mM stock solutions in DMSO, then diluted in 384 w plates first in DMSO, then in 100 mM TEA-chloride, 50 mM HEPES, 2.5 mM CaCl2, 5 mM KCl, 1 mM MgCl2, adjusted to pH 7.2 with TEA-hydroxide, to obtain 9× stocks. On the day of the assay, 25 μl of staining buffer (HBSS containing 20 mM HEPES, 0.375 g/l NaHCO3 and 3 μM of the fluorescent calcium indicator fluo-4 AM (1 mM stock solution in DMSO, containing 10% pluronic) is added to each well of the seeded plate. The 384-well cell-plates are incubated for 60 min at 37° C. in 5% CO2 followed by washing with 2×50 μl per well using HBSS containing 0.1% BSA, 20 mM HEPES, 0.375 g/l NaHCO3, leaving 50 […] of this buffer for equilibration at room temperature (30-60 min). Within the Fluorescent Imaging Plate Reader (FLIPR, Molecular Devices), antagonists are added to the plate in a volume of 6.25 Owen, incubated for 3 min, and finally 6.25 […] of Ca^2+ solution is added. Fluorescence is measured for each well at 2 second intervals for 8 minutes, and the area under the curve of each fluorescence peak is compared to the area of the fluorescence peak induced by 10 mM Ca^2+ with vehicle in place of antagonist. For each antagonist, the 1050 value (the concentration (in nM) of compound needed to inhibit 50% of the Ca^2+-induced fluorescence response) up to 10 μM is determined. The calculated IC50 values of the compounds may fluctuate depending on the daily cellular assay performance. Fluctuations of this kind are known to those skilled in the art.

The next assay has as its system isolated mouse hearts. The experiment in a line: Effect on isolated hearts according to the Langendorff method (Lgdff). The protocol:
The compounds were tested for their potential to reduce blood pressure and their effect on the contractility of the heart muscle. EC50 values on isolated mouse hearts were determined according to Literature (Doring H J., The isolated perfused heart according to Langendorff technique—function—application, Physiol. Bohemoslov. 1990, 39(6), 481-504; Kligfield P, Horner H, Brachfeld N., A model of graded ischemia in the isolated perfused rat heart, J. Appl. Physiol. 1976 June, 40(6), 1004-8).
7 example compounds have been measured using the procedure described above for the Langendorff experiment. The measured EC50 values were in the range of 7 to 29 nM with an average of 13 nM.

In the case of `COCC(C)(COC)CN(CCF)CCCN(C)CC[C@@]1(OC(=O)C(C)C)CCc2cc(F)ccc2[C@@H]1C(C)C` [Example 2, Isobutyric acid (1S,2S)-6-fluoro-2-[2-({3-[(2-fluoro-ethyl)-(3-methoxy-2-methoxymethyl-2-methyl-propyl)-amino]-propyl}-methyl-amino)-ethyl]-1-isopropyl-1,2,3,4-tetrahydro-naphthalen-2-yl ester], the IC50 – broadly, the concentration needed to halve the response being measured – in assay [1] is 3.15 µM. Still for that read-out and setting: the same measure for `COCC(C)(COC)CN(CCCN(C)CC[C@@]1(OC(=O)C(C)C)CCc2cc(F)ccc2[C@@H]1C(C)C)CC(F)(F)F` [Example 9, Isobutyric acid (1S,2S)-6-fluoro-1-isopropyl-2-[2-({3-[(3-methoxy-2-methoxymethyl-2-methyl-propyl)-(2,2,2-trifluoro-ethyl)-amino]-propyl}-methyl-amino)-ethyl]-1,2,3,4-tetrahydro-naphthalen-2-yl ester]: 1.69 µM; for `COCC(C)(COC)CN(CCCN(C)CC[C@@]1(OC(=O)CC(F)(F)F)CCc2cc(F)ccc2[C@@H]1C(C)C)CC(F)F` [Example 7, 3,3,3-Trifluoro-propionic acid (1S,2S)-2-[2-({3-[(2,2-difluoro-ethyl)-(3-methoxy-2-methoxymethyl-2-methyl-propyl)-amino]-propyl}-methyl-amino)-ethyl]-6-fluoro-1-isopropyl-1,2,3,4-tetrahydro-naphthalen-2-yl ester]: 6.34 µM; for `COCC(C)(COC)CN(CCCN(C)CC[C@@]1(O)CCc2cc(F)ccc2[C@@H]1C(C)C)CC(F)(F)F` [Example 8, (1S,2S)-6-Fluoro-1-isopropyl-2-[2-({3-[(3-methoxy-2-methoxymethyl-2-methyl-propyl)-(2,2,2-trifluoro-ethyl)-amino]-propyl}-methyl-amino)-ethyl]-1,2,3,4-tetrahydro-naphthalen-2-ol]: 2.88 µM.

For `COCC(C)(COC)CN(CCCN(C)CC[C@@]1(OC(=O)C(C)C)CCc2cc(F)ccc2[C@@H]1C(C)C)CC(F)F` [Example 6, Isobutyric acid (1S,2S)-2-[2-({3-[(2,2-difluoro-ethyl)-(3-methoxy-2-methoxymethyl-2-methyl-propyl)-amino]-propyl}-methyl-amino)-ethyl]-6-fluoro-1-isopropyl-1,2,3,4-tetrahydro-naphthalen-2-yl ester], the concentration for half-maximal inhibition (IC50) in assay [1] worked out at 7.89 µM. The 50% effective concentration (EC50) (usually the concentration that produces a half-maximal response) in the assay on isolated mouse hearts turned out to be 0.009 µM. As to `COCC(C)(COC)CN(CCF)CCCN(C)CC[C@@]1(OC(=O)CC(F)(F)F)CCc2cc(F)ccc2[C@@H]1C(C)C` [Example 3, 3,3,3-Trifluoro-propionic acid (1S,2S)-6-fluoro-2-[2-({3-[(2-fluoro-ethyl)-(3-methoxy-2-methoxymethyl-2-methyl-propyl)-amino]-propyl}-methyl-amino)-ethyl]-1-isopropyl-1,2,3,4-tetrahydro-naphthalen-2-yl ester], in assay [1], the 50% inhibitory concentration (IC50) came to 5.41 µM. For the same compound, the midpoint of the response in the assay with isolated mouse hearts, the EC50, lay at 0.007 µM.

Regarding `COCC(C)(COC)CN(CCCN(C)CC[C@@]1(O)CCc2cc(F)ccc2[C@@H]1C(C)C)CC(F)F` [Example 5, (1S,2S)-2-[2-({3-[(2,2-Difluoro-ethyl)-(3-methoxy-2-methoxymethyl-2-methyl-propyl)-amino]-propyl}methyl-amino)-ethyl]-6-fluoro-1-isopropyl-1,2,3,4-tetrahydro-naphthalen-2-ol], in assay [1], the half-inhibitory concentration (IC50) turned out to be 3.7 µM. The same measure, in the same setting: the same measure for `COCC(C)(COC)CN(CCF)CCCN(C)CC[C@@]1(OC(=O)CF)CCc2cc(F)ccc2[C@@H]1C(C)C` [Example 4, Fluoro-acetic acid (1S,2S)-6-fluoro-2-[2-({3-[(2-fluoro-ethyl)-(3-methoxy-2-methoxymethyl-2-methyl-propyl)-amino]-propyl}-methyl-amino)-ethyl]-1-isopropyl-1,2,3,4-tetrahydro-naphthalen-2-yl ester]: 3.96 µM; for `COCC(C)(COC)CN(CCF)CCCN(C)CC[C@@]1(O)CCc2cc(F)ccc2[C@@H]1C(C)C` [Example 1, (1S,2S)-6-Fluoro-2-[2-({3-[(2-fluoro-ethyl)-(3-methoxy-2-methoxymethyl-2-methyl-propyl)-amino]-propyl}-methyl-amino)-ethyl]-1-isopropyl-1,2,3,4-tetrahydro-naphthalen-2-ol]: 3.25 µM. For `COCC(C)(COC)CN(CCCN(C)CC[C@@]1(OC(=O)CC(F)(F)F)CCc2cc(F)ccc2[C@@H]1C(C)C)CC(F)(F)F` [Example 10, 3,3,3-Trifluoro-propionic acid (1S,2S)-6-fluoro-1-isopropyl-2-[2-({3-[(3-methoxy-2-methoxymethyl-2-methyl-propyl)-(2,2,2-trifluoro-ethyl)-amino]-propyl}-methyl-amino)-ethyl]-1,2,3,4-tetrahydro-naphthalen-2-yl ester], in assay [1], the IC50 was greater than 10 µM. Besides, a half-maximal response in the assay with isolated mouse hearts (EC50) required 0.009 µM.
